Experimental data: patent US6780854B2, “Orally active androgens” (Akzo Nobel NV, priority 1999, dated 2004)

Experiments:
serum LH = test: LH suppression assay: determination of oral activity; format: in vivo; details: Rattus norvegicus; mature male castrated rats; po daily for 4 days in arachis oil; serum LH 3 hours after last oral dose; read-out: ED50 (po) required to suppress serum LH for 50% (±10%)
Method: The LH Suppression Assay: Determination of Oral Activity
The in vivo potency (po) of several androgens of the invention was determined in a mature male castrated rat model, in comparison wih Segaloff compound. In this model serum LH is high (50× fold higher than with intact rats, due to the absence of the negative feedback of testicular testosterone). These rats are po treated for 4 days daily with a given compound of the invention in a suspension fluid of arachis oil. Before dosing and 3 hours after the last oral dose blood is collected via tail vene and in the serum LH is determined. Potency (po) of the androgens (ED50) are expressed as the amount (mg/kg) of androgen which suppresses serum LH for 50% (±10%).
The rat LH Time-Resolved Immuno Fluorometric Assay (TR-IFMA) has been developed in house using home made reagents, a monoclonal catching antibody directed against the β-subunit of human chorion gonadotrophin (hCG, which cross react with rat β-subunit) and a biotin labelled detecting antibody (rabbit polyclonal antibody directed against the alfa-subunit of recombinant rat LH). Recombinant rat LH was prepared according to the methods described by Hakola et al (1997). In this two-site-IFMA, only intact rat LH is determined by a final incubation with streptavidin-europium. The detection in the IFMA is based on fluorescence of the lanthanide europium during a relative long exitation period. The concentration range of rat LH standard is 0.001-10 ng/ml, for optimal accuracy measurements of serum LH serum samples were diluted 8-times with assay buffer [Hakola, K., Boogaart, P. V., Mulders, J., de Leeuw, R., Schoonen, W., Heyst, J. V., Swolfs, A., Casteren, J. V., Huhtaniemi, I., and Kloosterboer, H. J., Recombinant rat luteinizing hormone; production by Chinese hamster ovary cells, purification and functional characterization, Molecular & Cellular Endocrinology 128, 47 (1997)].

[1] = t1/2 after incubation with human hepatocytes (metabolic stability); format: in vitro ADME; details: male, cryopreserved human hepatocytes in suspension; 10 nM compound; cryopreserved human hepatocyte suspension, 37° C.; incubations stopped after 0.5, 1 and 3 h; LC-MS/MS
Method: Determination of t1′2 of Androgens of the Invention after Incubation with Human Hepatocytes
The half-life of a compound as a result of contact with human hepatocytes holds as a reliable indication of metabolic stability. As it is well known that the absorption of this class of steroids is high, this assay provides an in vitro model for oral activity in humans.
Hepatocytes collected from healthy young (25-45 year) male organ donors were cryo preserved in liquid nitrogen and kept there until use. They were thawed at 37° C. in a waterbath, placed immediately on ice, washed twice in one volume of cold (4° C.) incubation medium [William's medium E (without phenol red) with Glutamax I®, gentamicin 50 μg/ml, insulin 1 μM, hydrocortisone hemisuccinate 10 μM, fetal calf serum 0% (v/v)], counted and the viability checked by Trypan blue exclusion. Cells were incubated as suspensions in 12-wells (non-coated) plates at a nominal density of 0.5×10^6 cells/well in 1.5 ml medium at 37° C. with an air/O2/CO2 mixture (55/40/5). The plates were set on an orbital shaker at approximately 10 rpm.
The hepatocytes were incubated with 10 nM final concentration of the compound to be tested. The incubations were stopped after 0.5, 1 and 3 h by pipetting the whole incubation mixture into a glass tube and adding one volume of acetone on ice. The acetone was dried under a nitrogen flow at room temperature, the volume adjusted to 1.5 ml and the tubes were centrifuged at 4° C. at 10.000×g for 30 min. The de-proteinized supernatants were collected for LC-MS/MS analysis.

## CC[C@@H]1CC2=CC(=O)CC[C@@H]2[C@H]2CC[C@@]3(C)C(=CC[C@@H]3O)[C@H]12 [Example 1a, (7α,17β)-7-Ethyl-17-hydroxyestra-4,14-dien-3-one]
Serum LH
  ED50: 0.2 mg/kg
[1]
  half-life at 10 nM: 2.62 h

## C=C[C@@H]1CC2=CC(=O)CC[C@@H]2[C@H]2CC[C@@]3(C)C(=CC[C@@H]3O)[C@@H]21 [Example 2, (7α,17β)-7-Ethenyl-17-hydroxyestra-4,14-dien-3-one]
Serum LH
  ED50: 0.5 mg/kg
[1]
  half-life at 10 nM: 0.667 h

## C[C@@H]1CC2=CC(=O)CC[C@@H]2[C@H]2CC[C@@]3(C)C(=CC[C@@H]3O)[C@@H]21 [Segaloff compound, (7α,17β)-7-Methyl-17-hydroxyestra-4,14-dien-3-one, reference compound]
Serum LH
  ED50: 5 mg/kg
[1]
  half-life at 10 nM: 1 h
